Legend:
[1] = xn = mol fraction of the nth substance listed; conditions: 101 kPa, Liquid
[2] = refractive index (Na D-line) (dimensionless); conditions: 101.33 kPa, Liquid, Standard Abbe refractometry
[3] = Liquid; for mass density / viscosity: 101 kPa

CCC(C)=O [butanone] + ClC(Cl)Cl
[1], x2 = 0
Conditions	mass density [kg/m3]	viscosity [mPa·s]
283.15 K	815.9	0.472
293.15 K	805.5	0.423
303.15 K	795.1	0.382
313.15 K	784.3	0.347

CCC(C)=O [butanone]
Conditions	mass density, [3] [kg/m3]	refractive index, [2]	vapor or sublimation pressure, [3] [kPa]	viscosity, [3] [mPa·s]
283.15 K	815.9	1.384	–	0.472
293.15 K	805.5	1.37888	–	0.423
303.15 K	795.1	1.37383	15.74	0.382
313.15 K	784.3	1.36856	–	0.347

ClC(Cl)Cl [trichloromethane]
Conditions	mass density, [3] [kg/m3]	refractive index, [2]	vapor or sublimation pressure, [3] [kPa]	viscosity, [3] [mPa·s]
283.15 K	1507.3	1.45189	–	0.629
293.15 K	1488.4	1.44589	–	0.573
303.15 K	1469.4	1.43987	32.19	0.516
313.15 K	1450	1.43386	–	0.468

ClC(Cl)Cl [trichloromethane] + CCC(C)=O
[1]
Conditions	mass density, 283.15 K [kg/m3]	mass density, 293.15 K [kg/m3]	mass density, 303.15 K [kg/m3]	mass density, 313.15 K [kg/m3]	viscosity, 283.15 K [mPa·s]	viscosity, 293.15 K [mPa·s]	viscosity, 303.15 K [mPa·s]	viscosity, 313.15 K [mPa·s]
x1 = 0.0906	872.7	861.7	850.7	839.3	0.528	0.475	0.419	0.385
x1 = 0.1806	930.4	918.7	907.1	895.1	0.588	0.526	0.468	0.42
x1 = 0.272	990.2	977.9	965.6	952.9	0.627	0.556	0.499	0.451
x1 = 0.3661	1053.3	1040.2	1027.2	1013.7	0.66	0.594	0.53	0.477
x1 = 0.4551	1113.9	1100.2	1086.4	1072.3	0.692	0.62	0.553	0.498
x1 = 0.549	1179.5	1165	1150.5	1135.5	0.711	0.633	0.565	0.51
x1 = 0.633	1238.9	1223.7	1208.5	1192.7	0.712	0.636	0.571	0.515
x1 = 0.7035	1289.3	1273.6	1257.7	1241.3	0.717	0.631	0.566	0.513
x1 = 0.7973	1357.5	1340.7	1323.9	1306.6	0.701	0.63	0.566	0.51
x1 = 0.9068	1437.7	1419.8	1401.8	1383.4	0.674	0.61	0.546	0.491
x1 = 1	1507.3	1488.4	1469.4	1450	0.629	0.573	0.516	0.468
